# Test results taken from US5145848A, “Amino anthracenediones-bis platinum complexes, useful as antitumoral agents” (priority 1987, dated 1992).
# What was measured:
# [1] = system: leukaemia P388; assay: Antitumour activity against leukaemia P388 in rats CD2 F1, i.p. (Table I); assay type: in vivo; conditions: for MST / T/C % / TOX: day 1; for LTS (60 days): day 1, 60 days
# Procedure: 10^5 leukaemic cells were injected at day 0 and the compounds were administered intraperitoneally the day after, defined as day 1 of the experiment.
# [2] = system: K562 cells; assay: In vitro growth inhibition of human erythroleukosis K562 (Table III); assay type: cell-based
# Procedure: (§1) Effect of BBR 1939 on in vitro growth^b) of murine leukaemia^a)
# L1210/CDDP and human erythroleukosis
# K562 b - Comparison with CDDP:
# (§2) ^a) 10^5 cells were plated in triplicate at time
# (§3) ^b) means used: RPMI 1640 + 10 Y FCS (inactivated in warm) +
# (§4) 2mercaptoethanol 10^-3 M
# (§5) ^c) IC %: inhibition percentage of cellular growth (treated animals
# [3] = system: leukaemia L1210/CDDP; assay: Effect on leukaemia L1210/CDDP (cis-platinum resistant) in rats CD2 F1, i.p. (Table II); assay type: in vivo, rats CD2 Fl; conditions: for MST / T/C %: day 1; for LTS (60 days): day 1, 60 days
# Procedure: ^a) 10^5 cell/rat injected i.p. at day
# Compounds were administered at day "1
# [4] = system: human tumors; conditions: cited from earlier work
# [5] = system: L1210/CDDP cells; assay: In vitro growth inhibition of murine leukaemia L1210/CDDP (Table III); assay type: cell-based
# Procedure: as §1, §2, §3, §4, §5
smiles,measurement,setting,value
O=C1c2c(O)ccc(O)c2C(=O)c2c(NCCNCCO)ccc(NCCNCCO)c21 [Mitoxanthrone],MST,[1]; 3.75 mg/Kg,32.5 days
same,T/C %,[1]; 3.75 mg/Kg,295%
same,TOX,[1]; 3.75 mg/Kg,0/7
same,LTS (60 days),[1]; 3.75 mg/Kg,2/7
same,MST,[1]; 11.1 mg/Kg,36.5 days
same,T/C %,[1]; 11.1 mg/Kg,331%
same,TOX,[1]; 11.1 mg/Kg,0/7
same,LTS (60 days),[1]; 11.1 mg/Kg,1/7
same,MST,[1]; 18.4 mg/Kg,42.5 days
same,T/C %,[1]; 18.4 mg/Kg,386%
same,TOX,[1]; 18.4 mg/Kg,0/7
same,LTS (60 days),[1]; 18.4 mg/Kg,1/7
same,MST,[1]; 25.8 mg/Kg,40.5 days
same,T/C %,[1]; 25.8 mg/Kg,368%
same,TOX,[1]; 25.8 mg/Kg,1/7
same,LTS (60 days),[1]; 25.8 mg/Kg,0/7
"N.N.[Cl][Pt][Cl] [cis-platinum, cis-diaminodichloroplatinum II]",IC % (inhibition percentage of cellular growth),"[2]; 1 ug/ml, after 24 hours",22%
same,IC % (inhibition percentage of cellular growth),"[2]; 1 ug/ml, after 48 hours",52%
same,IC % (inhibition percentage of cellular growth),"[2]; 1 ug/ml, after 72 hours",54%
same,IC % (inhibition percentage of cellular growth),"[2]; 5 ug/ml, after 24 hours",28%
same,IC % (inhibition percentage of cellular growth),"[2]; 5 ug/ml, after 48 hours",71%
same,IC % (inhibition percentage of cellular growth),"[2]; 5 ug/ml, after 72 hours",82%
same,IC % (inhibition percentage of cellular growth),"[2]; 10 ug/ml, after 24 hours",35%
same,IC % (inhibition percentage of cellular growth),"[2]; 10 ug/ml, after 48 hours",76%
same,IC % (inhibition percentage of cellular growth),"[2]; 10 ug/ml, after 72 hours",87%
same,IC % (inhibition percentage of cellular growth),"[2]; 50 ug/ml, after 24 hours",52%
same,IC % (inhibition percentage of cellular growth),"[2]; 50 ug/ml, after 48 hours",85%
same,IC % (inhibition percentage of cellular growth),"[2]; 50 ug/ml, after 72 hours",91%
same,IC % (inhibition percentage of cellular growth),"[2]; 100 ug/ml, after 24 hours",56%
same,IC % (inhibition percentage of cellular growth),"[2]; 100 ug/ml, after 48 hours",85%
same,IC % (inhibition percentage of cellular growth),"[2]; 100 ug/ml, after 72 hours",91%
same,MST,[3]; 5 mg/Kg,11.1 days
same,T/C %,[3]; 5 mg/Kg,97%
same,LTS (60 days),[3]; 5 mg/Kg,0/10
same,MST,[3]; 7.5 mg/Kg,11.6 days
same,T/C %,[3]; 7.5 mg/Kg,101%
same,LTS (60 days),[3]; 7.5 mg/Kg,0/10
same,MST,[3]; 12.5 mg/Kg,9.3 days
same,T/C %,[3]; 12.5 mg/Kg,103%
same,LTS (60 days),[3]; 12.5 mg/Kg,0/10
same,clinical efficacy,[4]; clinical observation,Clinical observation confirms the efficacy of the compound in a number of human tumors
same,side effects,[4]; clinical,"serious gastro-intestinal, renal side effects, hematologic and neurologic complications (ototoxicity)"
same,MST,[1]; 6 mg/Kg,22.5 days
same,T/C %,[1]; 6 mg/Kg,198%
same,LTS (60 days),[1]; 6 mg/Kg,0/7
same,MST,[1]; 10 mg/Kg,18.8 days
same,T/C %,[1]; 10 mg/Kg,162%
same,LTS (60 days),[1]; 10 mg/Kg,0/7
same,MST,[1]; 14 mg/Kg,11.5 days
same,T/C %,[1]; 14 mg/Kg,99%
same,LTS (60 days),[1]; 14 mg/Kg,0/7
same,IC % (inhibition percentage of cellular growth),"[5]; 0.5 ug/ml, after 24 hours",20%
same,IC % (inhibition percentage of cellular growth),"[5]; 0.5 ug/ml, after 48 hours",8%
same,IC % (inhibition percentage of cellular growth),"[5]; 0.5 ug/ml, after 72 hours",37%
same,IC % (inhibition percentage of cellular growth),"[5]; 1 ug/ml, after 24 hours",30%
same,IC % (inhibition percentage of cellular growth),"[5]; 1 ug/ml, after 48 hours",18%
same,IC % (inhibition percentage of cellular growth),"[5]; 1 ug/ml, after 72 hours",44%
same,IC % (inhibition percentage of cellular growth),"[5]; 5 ug/ml, after 24 hours",54%
same,IC % (inhibition percentage of cellular growth),"[5]; 5 ug/ml, after 48 hours",87%
same,IC % (inhibition percentage of cellular growth),"[5]; 5 ug/ml, after 72 hours",84%
same,IC % (inhibition percentage of cellular growth),"[5]; 10 ug/ml, after 24 hours",78%
same,IC % (inhibition percentage of cellular growth),"[5]; 10 ug/ml, after 48 hours",92%
same,IC % (inhibition percentage of cellular growth),"[5]; 10 ug/ml, after 72 hours",86%
same,IC % (inhibition percentage of cellular growth),"[5]; 50 ug/ml, after 24 hours",80%
same,IC % (inhibition percentage of cellular growth),"[5]; 50 ug/ml, after 48 hours",99%
same,IC % (inhibition percentage of cellular growth),"[5]; 50 ug/ml, after 72 hours",100%
